In US10183914B2 (BAYER CROPSCIENCE AKTIENGESELLSCHAFT, priority 2014, dated 2019):

Legend:
[1] = tested on: Triticum aestivum (spring); assay: Pre-emergence herbicidal effect and crop plant compatibility; format: in vivo; conditions: 3 weeks
Outline: (§1)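 Sandy loam, seeds covered with soil, WP/EC sprayed on soil surface; 600–800 L/ha water + 0.2% wetter; greenhouse 3 wk; visual % damage vs untreated.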

Zea mays [2] = assay: as above; format: in vivo; conditions: 3 weeks
Outline: as §1

[3] = logp (HCOOH), physicochemical characterization
Stellaria media = assay: Pre-emergence herbicidal effect; format: in vivo; conditions: 3 weeks
Outline: as §1

Ipomoea purpurea = assay: Pre-emergence herbicidal effect; format: in vivo; conditions: 3 weeks
Outline: as §1

Alopecurus myosuroides = assay: Pre-emergence herbicidal effect; format: in vivo; conditions: 3 weeks
Outline: as §1

Veronica persica = assay: Pre-emergence herbicidal effect; format: in vivo; conditions: 3 weeks
Outline: as §1

Polygonum convolvulus = assay: Pre-emergence herbicidal effect; format: in vivo; conditions: 3 weeks
Outline: as §1

Matricaria inodora = assay: Pre-emergence herbicidal effect; format: in vivo; conditions: 3 weeks
Outline: as §1

Viola tricolor = assay: Pre-emergence herbicidal effect; format: in vivo; conditions: 3 weeks
Outline: as §1

Amaranthus retroflexus = assay: Pre-emergence herbicidal effect; format: in vivo; conditions: 3 weeks
Outline: as §1

Setaria viridis [4] = assay: Pre-emergence herbicidal effect; format: in vivo; conditions: 3 weeks
Outline: as §1

Lolium multiflorum [5] = assay: Pre-emergence herbicidal effect; format: in vivo; conditions: 3 weeks
Outline: as §1

Echinochloa crus-galli [6] = assay: Pre-emergence herbicidal effect; format: in vivo; conditions: 3 weeks
Outline: as §1

Oryza sativa = assay: Post-emergence herbicidal effect and crop plant compatibility; format: in vivo; conditions: visual scoring after about 3 weeks
Outline: (§2)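 Scoring: visual, percent, about 3 weeks post-treatment, untreated plants as 0% reference and dead plants as 100%. Treatment: spray of WP/EC formulation (600 to 800 L/ha water, 0.2% wetting agent) on one-leaf-stage plants grown in sandy loam under greenhouse conditions.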

[7] = tested on: Triticum aestivum (spring); assay: as above; format: in vivo; conditions: visual scoring after about 3 weeks
Outline: as §2

Zea mays [8] = assay: as above; format: in vivo; conditions: visual scoring after about 3 weeks
Outline: as §2

Setaria viridis [9] = assay: Post-emergence herbicidal effect; format: in vivo; conditions: scoring after about 3 weeks
Protocol: (§3) Seeds of monocotyledonous and dicotyledonous weed and crop plants are laid out in sandy loam in wood-fiber pots, covered with soil and cultivated in a greenhouse under good growth conditions. 2 to 3 weeks after sowing, the test plants are treated at the one-leaf stage. The compounds of the invention, formulated in the form of wettable powders (WP) or as emulsion concentrates (EC), are then sprayed onto the green parts of the plants as aqueous suspension or emulsion at a water application rate equating to 600 to 800 L/ha with addition of 0.2% wetting agent. After the trial plants have been left to stand in a greenhouse under optimal growth conditions for about 3 weeks, the efficacy of the formulations is scored visually in comparison to untreated controls (herbicidal action in percent (%): 100% efficacy=the plants have died, 0% efficacy=like control plants).

Lolium multiflorum [10] = assay: Post-emergence herbicidal effect; format: in vivo; conditions: 320 g/ha, visual scoring after about 3 weeks
Protocol: as §3

Echinochloa crus-galli [11] = assay: Post-emergence herbicidal effect; format: in vivo; conditions: visual scoring after about 3 weeks
Protocol: as §3

Abutilon theophrasti = assay: Pre-emergence herbicidal effect; format: in vivo; conditions: 3 weeks
Outline: as §1

Avena fatua = assay: Pre-emergence herbicidal effect; format: in vivo; conditions: 1280 g/ha, 3 weeks
Outline: as §1

CC(=O)c1cnc(NC2CCOc3c(C)cccc32)nc1 (racemic) [1.7]
TRZAS herbicidal activity in percent ([1]; 80 g/ha): 0% | TRZAS herbicidal activity in percent ([1]; 320 g/ha): 0% | ZEAMX herbicidal activity in percent (Zea mays [2]; 80 g/ha): 0% | ZEAMX herbicidal activity in percent (Zea mays [2]; 320 g/ha): 20% | logp (HCOOH) ([3]; HCOOH): solid; m.p.: 167-168° C.; logp (HCOOH): 2.54; 1H-NMR (CDCl3, 400 MHZ, δ in | STEME herbicidal activity in percent (Stellaria media; 80 g/ha): 80% | STEME herbicidal activity in percent (Stellaria media; 320 g/ha): 100% | PHBPU herbicidal activity in percent (Ipomoea purpurea; 320 g/ha): 100% | ALOMY herbicidal activity in percent (Alopecurus myosuroides; 80 g/ha): 80% | ALOMY herbicidal activity in percent (Alopecurus myosuroides; 320 g/ha): 100% | VERPE herbicidal activity in percent (Veronica persica; 80 g/ha): 100% | VERPE herbicidal activity in percent (Veronica persica; 320 g/ha): 100% | POLCO herbicidal activity in percent (Polygonum convolvulus; 320 g/ha): 90% | MATIN herbicidal activity in percent (Matricaria inodora; 80 g/ha): 90% | MATIN herbicidal activity in percent (Matricaria inodora; 320 g/ha): 100% | VIOTR herbicidal activity in percent (Viola tricolor; 320 g/ha): 100% | AMARE herbicidal activity in percent (Amaranthus retroflexus; 320 g/ha): 100% | SETVI herbicidal activity in percent (Setaria viridis [4]; 320 g/ha): 90% | LOLMU herbicidal activity in percent (Lolium multiflorum [5]; 320 g/ha): 100% | ECHCG herbicidal activity in percent (Echinochloa crus-galli [6]; 320 g/ha): 90%

Cc1cccc2c1OCC[C@H]2Nc1ncc2c(n1)CCCC2=O [2.100]
post-emergence efficacy ORYSA (Oryza sativa; 80 g/ha): 0% | post-emergence efficacy ORYSA (Oryza sativa; 320 g/ha): 0% | post-emergence efficacy TRZAS ([7]; 80 g/ha): 10% | post-emergence efficacy TRZAS ([7]; 320 g/ha): 20% | post-emergence efficacy ZEAMX (Zea mays [8]; 80 g/ha): 10% | post-emergence efficacy ZEAMX (Zea mays [8]; 320 g/ha): 10% | post-emergence efficacy SETVI (Setaria viridis [9]; 80 g/ha (dose by row order of upper half)): 90% | post-emergence efficacy SETVI (Setaria viridis [9]; 320 g/ha (dose by row order of upper half)): 90% | post-emergence efficacy LOLMU (Lolium multiflorum [10]): 100% | post-emergence efficacy ECHCG (Echinochloa crus-galli [11]; 80 g/ha): 100% | post-emergence efficacy ECHCG (Echinochloa crus-galli [11]; 320 g/ha): 100% | TRZAS herbicidal activity in percent ([1]; 80 g/ha): 0% | TRZAS herbicidal activity in percent ([1]; 320 g/ha): 10% | ZEAMX herbicidal activity in percent (Zea mays [2]; 80 g/ha): 0% | ZEAMX herbicidal activity in percent (Zea mays [2]; 320 g/ha): 10% | STEME herbicidal activity in percent (Stellaria media; 80 g/ha): 100% | STEME herbicidal activity in percent (Stellaria media; 320 g/ha): 100% | ALOMY herbicidal activity in percent (Alopecurus myosuroides; 320 g/ha): 80% | VERPE herbicidal activity in percent (Veronica persica; 80 g/ha): 100% | VERPE herbicidal activity in percent (Veronica persica; 320 g/ha): 100% | ABUTH herbicidal activity in percent (Abutilon theophrasti; 320 g/ha): 90% | POLCO herbicidal activity in percent (Polygonum convolvulus; 80 g/ha): 90% | POLCO herbicidal activity in percent (Polygonum convolvulus; 320 g/ha): 90% | MATIN herbicidal activity in percent (Matricaria inodora; 80 g/ha): 100% | MATIN herbicidal activity in percent (Matricaria inodora; 320 g/ha): 100% | VIOTR herbicidal activity in percent (Viola tricolor; 80 g/ha): 100% | VIOTR herbicidal activity in percent (Viola tricolor; 320 g/ha): 100% | AMARE herbicidal activity in percent (Amaranthus retroflexus; 80 g/ha): 100% | AMARE herbicidal activity in percent (Amaranthus retroflexus; 320 g/ha): 100% | SETVI herbicidal activity in percent (Setaria viridis [4]; 80 g/ha): 100% | SETVI herbicidal activity in percent (Setaria viridis [4]; 320 g/ha): 100% | LOLMU herbicidal activity in percent (Lolium multiflorum [5]; 320 g/ha): 100% | ECHCG herbicidal activity in percent (Echinochloa crus-galli [6]; 80 g/ha): 100% | ECHCG herbicidal activity in percent (Echinochloa crus-galli [6]; 320 g/ha): 100%

CC(=O)c1cnc(NC2CCOc3ccccc32)nc1C (centres unmarked) [1.83, 1-[2-(3,4-Dihydro-2H-chromen-4-ylamino)-4-methylpyrimidin-5-yl]ethanone]
chromatographic logP ([3]; HCOOH (formic acid)): 2.44 | STEME herbicidal activity in percent (Stellaria media; 1280 g/ha): 100% | PHBPU herbicidal activity in percent (Ipomoea purpurea; 1280 g/ha): 100% | ALOMY herbicidal activity in percent (Alopecurus myosuroides; 1280 g/ha): 100% | VERPE herbicidal activity in percent (Veronica persica; 1280 g/ha): 100% | ABUTH herbicidal activity in percent (Abutilon theophrasti; 1280 g/ha): 100% | AVEFA herbicidal activity in percent (Avena fatua): 90% | POLCO herbicidal activity in percent (Polygonum convolvulus; 1280 g/ha): 100% | MATIN herbicidal activity in percent (Matricaria inodora; 1280 g/ha): 100% | VIOTR herbicidal activity in percent (Viola tricolor; 1280 g/ha): 100% | AMARE herbicidal activity in percent (Amaranthus retroflexus; 1280 g/ha): 100% | SETVI herbicidal activity in percent (Setaria viridis [4]; 1280 g/ha): 100% | LOLMU herbicidal activity in percent (Lolium multiflorum [5]; 1280 g/ha): 100% | ECHCG herbicidal activity in percent (Echinochloa crus-galli [6]; 1280 g/ha): 100%
